Assay results taken from PMC9415646, “Improving Aqueous Solubility and In Vitro Pharmacokinetic Properties of the 3-Nitroimidazo[1,2-a]pyridine Antileishmanial Pharmacophore” (Pharmaceuticals, 2022).
Converted amounts (≈) assume the structure as drawn.

Experiments:
[1] = tested on: L. infantum promastigotes; assay: Antileishmanial activity against L. infantum promastigotes (luciferase assay); format: cell-based; conditions: Leishmania infantum, 72 h, read-out: EC50 L. infantum Pro.
Experimental: L. infantum promastigotes (MHOM/MA/67/ITMAP-263, CNR Leishmania, Montpellier, France, expressing luciferase activity) were used in the following tests. The effects of the tested compounds on the growth of L. infantum promastigotes were assessed by Luciferase Assay. Briefly, promastigotes in log-phase in RPMI 1640 medium supplemented with 10% fetal calf serum (FCS), 2 mM L-glutamine and antibiotics (100U/mL penicillin, 100 µg/mL streptomycin and 50µg/mL geneticin), were incubated at an average density of 10^6 parasites/mL (100 µL/well) in sterile 96-well plates with various concentrations of compounds dissolved in DMSO (final concentration less than 0.5% v/v), in duplicate. Appropriate controls (100 µL/well) treated by DMSO and reference drugs (purchased for the majority from Sigma Aldrich) were added to each set of experiments. After a 72 h incubation period at 24 °C, each plate-well was then microscope-examined for detecting possible precipitate formation. To estimate the luciferase activities of promastigotes, 80 µL of each well are transferred in white 96-well plates, Steady Glow reagent (Promega) was added according to manufacter’s instructions, and plates were incubated for 2 min. The luminescence was measured in a FLUOstar Omega (BMG Labtech, Champigny-sur-Marne, France). […] EC50 were calculated by non-linear regression analysis processed on dose–response curves, using TableCurve 2D V5 software.

[2] = tested on: L. infantum axenic amastigotes; assay: Antileishmanial activity on L. infantum axenic amastigotes (luciferase assay); format: cell-based; conditions: Leishmania infantum, 48 h, read-out: EC50 L. infantum Axenic Ama.
Experimental: L. infantum promastigotes were harvested in logarithmic phase of growth by centrifugation at 900× g for 10 min. The supernatant was removed carefully and was replaced by the same volume of RPMI 1640 complete medium at pH 5.4 and incubated for 24 h at 24 °C. The acidified promastigotes were then incubated for 24 h at 37 °C in a ventilated flask to transform them into axenic amastigotes. The amastigote stage was checked both by electron microscopy (short flagellum with small bulbous tip extending beyond a spherical cell body) and RT-PCR to confirm the overexpression of ATG8 and amastin genes in amastigotes, relative to promastigotes. The effects of the tested compounds on the growth of L. infantum axenic amastigotes were assessed as follows. L. infantum amastigotes were incubated at a density of 2 × 10^6 parasites/mL in sterile 96-well plates with various concentrations of compounds dissolved in DMSO (final concentration less than 0.5% v/v), in duplicate. Appropriate controls treated with DMSO, amphotericin B, miltefosine, fexinidazole and fexinidazole sulfone were added to each set of experiments. After a 48 h incubation period at 37 °C, each plate-well was then microscopically examined to detect any precipitate formation.
• Luciferase activity and determination of EC50 were performed as above.

[3] = Mouse microsomal stability; format: in vitro ADME; conditions: female, CD-1, pH 7.4; mouse liver microsomes; read-out: Mouse Microsomal Stability T1/2
Experimental: The tested product and propranolol, used as reference, were incubated in duplicate (reaction volume of 0.5 mL) with female mouse microsomes (CD-1, 20 mg/mL, BD Gentest™) at 37 °C in a 50 mM phosphate buffer, pH 7.4, in the presence of MgCl2 (5 mM), NADP (1 mM), glucose-6-phosphate dehydrogenase (0.4 U/mL) and glucose-6-phosphate (5 mM). […] After centrifugation at 10,000× g, 10 min, 4 °C, the supernatants were maintained at 4 °C for immediate analysis or placed at -80 °C for later analysis. Controls (t0 and tfinal) in triplicate were prepared by incubation of the internal standard with microsomes denatured by acetonitrile. […] The mobile phases were (A) ammonium acetate 10 mM and (B) acetonitrile with 0.1% formic acid. The injection volume was 1 µL and the flow rate 600 µL/min. […] Each compound was quantified by converting the average of the ratios of the analyte/internal standard surfaces to the percentage of product consumed. The ratio of the control at t0 corresponded to 0% of product consumed. The half-life (T1/2) of each compound in the presence of microsomes was calculated according to the equation: t1/2=ln(2)/k , where k is the first-order degradation constant (the slope of the logarithm of compound concentration versus incubation time). The intrinsic clearance in vitro (Clint expressed in μL/min/mg) is calculated according to the equation: Clint=dose/AUC∞/[microsomes] where “dose” is the initial concentration of product in the sample, AUC∞ is the area under the concentration-time curve extrapolated to infinity and [microsomes] is the microsome concentration expressed in mg/µL.

[4] = Thermodynamic solubility at pH 7.4 (miniaturized shake-flask); format: physicochemical; conditions: pH 7.4, PBS, 23 °C; for solubility thermodynamic at 24 h: phosphate buffer (PBS), aqueous buffer, kinetic from dmso stock
Experimental: Thermodynamic solubility at pH 7.4 of compounds was determined according to a miniaturized shake-flask method (Organisation for Economic Cooperation and Development guideline n°105). Phosphate Buffer solutions (pH 7.4, […], ionic strength […]) were prepared from Na2HPO4, KH2PO4 and KCl (Sigma Aldrich, Saint Quentin Fallavier, France); 10 µL of 20 mM stock solution were added to 5 mL glass tubes containing […] buffer (n = 3). The tubes were briefly sonicated and shacked by inversion during 24 h at 23 °C. Then, the tube contents were placed in a microtube which was centrifuged at 12,225× g for 10 min; 100 µL supernatant were mixed with 100 µL acetonitrile in a Greiner UV microplate. Standard solutions were prepared extemporaneously, diluting 20 mM DMSO stock solutions at […]; 5 µL of each working solution were diluted with 995 µL buffer and 100 µL were then mixed in microplates with 100 µL acetonitrile so as to ensure that the final proportions of each solvent in standard solutions and samples remained unchanged. Solubility at pH 7.4 was determined with an Infinite M200Pro (Tecan, Lyon, France) microplate reader in spectrophotometric mode (230 to 450 nm) from the specific λmax of each compound. The calibration curve was obtained from the […] standard solutions of tested compounds at 0, 25, 50, and 100 µM in a 50:50 (vol/vol) mixture of buffer with acetonitrinile/DMSO (99:1; vol/vol). Calibration curves were linear with R^2 > 0.99.

SMILES	EC50 [1] [nM]	EC50 [2] [nM]	half-life [3] [min]	solubility thermodynamic at 24 h [4] [µM]	Thermodynamic Solubility at pH 7.4 in PBS ([4]; 24 h) [µM]
O=[N+]([O-])c1c(CS(=O)(=O)CCC(F)(F)F)nc2c(S(=O)(=O)c3ccc(Cl)cc3)cc(Cl)cn12 [Compound 6b, 6-Chloro-8-[(4-Chlorophenyl)sulfonyl]-3-Nitro-2-[(3,3,3-Trifluoropropylsulfonyl)methyl] imidazo[1,2-a]pyridine]	13700 ± 900	2300 ± 300	7.9		
COc1ccc(S(=O)(=O)Cc2nc3c(Sc4ccc(Cl)cc4)cc(Cl)cn3c2[N+](=O)[O-])cc1 [Compound 3f, 6-Chloro-8-[(4-Chlorophenyl)thio]-2-[(4-Methoxyphenylsulfonyl)methyl]-3-Nitroimidazo[1,2-a]pyridine]	1200 ± 100	500 ± 100		< 2	
O=[N+]([O-])c1c(CS(=O)(=O)c2ccc(F)cc2)nc2c(Sc3ccc(Cl)cc3)cc(Cl)cn12 [Compound 3c, 6-Chloro-8-[(4-Chlorophenyl)thio]-2-[(4-Fluorophenylsulfonyl)methyl]-3-Nitroimidazo[1,2-a]pyridine]	1500 ± 100	200 ± 100	5.7	< 2	
O=[N+]([O-])c1c(CS(=O)(=O)c2ccc(OC(F)(F)F)cc2)nc2c(Sc3ccc(Cl)cc3)cc(Cl)cn12 [Compound 3e, 6-Chloro-8-[(4-Chlorophenyl)thio]-3-Nitro-2-[(4-Trifluoromethoxyphenylsulfonyl)methyl]imidazo[1,2-a]pyridine]	3100 ± 200	800 ± 200		64.7 ± 7.3 (≈ 37.4 µg/mL)	
O=[N+]([O-])c1c(CS(=O)(=O)c2ccc(C(F)(F)F)cc2)nc2c(Sc3ccc(Cl)cc3)cc(Cl)cn12 [Compound 3d, 6-Chloro-8-[(4-Chlorophenyl)thio]-3-Nitro-2-[(4-Trifluoromethylphenylsulfonyl)methyl]imidazo[1,2-a]pyridine]	3300 ± 400	800 ± 100		2.5 ± 0.7 (≈ 1.41 µg/mL)	
O=[N+]([O-])c1c(CS(=O)(=O)c2ccc(Cl)cc2)nc2c(Sc3ccc(Cl)cc3)cc(Cl)cn12 [Compound 3b, 6-Chloro-2-[(4-Chlorophenylsulfonyl)methyl]-8-[(4-Chlorophenyl)thio]-3-Nitroimidazo[1,2-a]pyridine]	1200 ± 100	1000 ± 100	4.5	< 2	
COc1ccc(S(=O)(=O)Cc2nc3c(Br)cc(Cl)cn3c2[N+](=O)[O-])cc1 [Compound 2g, 8-Bromo-6-Chloro-2-[(4-Methoxyphenylsulfonyl)methyl]-3-Nitroimidazo[1,2-a]pyridine]	9300 ± 1200	2300 ± 300		5.7 ± 1.3 (≈ 2.63 µg/mL)	
O=[N+]([O-])c1c(CS(=O)(=O)c2ccc(OC(F)(F)F)cc2)nc2c(Br)cc(Cl)cn12 [Compound 2f, 8-Bromo-6-Chloro-3-Nitro-2-[(4-Trifluoromethoxyphenylsulfonyl)methyl]imidazo[1,2-a] pyridine]	6700 ± 800	2700 ± 400		8.6 ± 2.3 (≈ 4.43 µg/mL)	
O=[N+]([O-])c1c(CS(=O)(=O)CCC(F)(F)F)nc2c(Sc3ccc(Cl)cc3)cc(Cl)cn12 [Compound 3i, 6-Chloro-8-[(4-Chlorophenyl)thio]-3-Nitro-2-[(3,3,3-Trifluoropropylsulfonyl)methyl]imidazo[1,2-a]pyridine]	1400 ± 100	800 ± 300	9.1	12.4 ± 3 (≈ 6.38 µg/mL)	
O=[N+]([O-])c1c(CS(=O)(=O)CCC(F)(F)F)nc2c(-c3ccncc3)cc(Cl)cn12 [Compound 7, 6-Chloro-3-Nitro-8-(Pyridin-4-yl)-2-[(3,3,3-Trifluoropropylsulfonyl)methyl]imidazo[1,2-a]pyridine]	14000 ± 400	14000 ± 900	> 40	31.1 ± 3.7 (≈ 14 µg/mL)	
O=[N+]([O-])c1c(CS(=O)(=O)c2ccccc2)nc2c(Br)cc(Cl)cn12 [Hit A, 8-Bromo-6-chloro-3-nitro-2-(phenylsulfonylmethyl)imidazo[1,2-a]pyridine, reference compound]	8700 ± 700	16400 ± 1300	11	6.9 ± 1.5 (≈ 2.97 µg/mL)	
CSc1ccc(OCc2ncc([N+](=O)[O-])n2C)cc1 [Fexinidazole, reference compound]	1000 ± 100	7800 ± 2300			
O=[N+]([O-])c1c(CS(=O)(=O)C2CC2)nc2c(Sc3ccc(Cl)cc3)cc(Cl)cn12 [Compound 3h, 6-Chloro-8-[(4-Chlorophenyl)thio]-2-[(cyclopropylsulfonyl)methyl]-3-Nitroimidazo[1,2-a]pyridine]	2200 ± 300	2400 ± 100		3 ± 0.4 (≈ 1.38 µg/mL)	
O=[N+]([O-])c1c(CS(=O)(=O)c2ccc(O)cc2)nc2c(Sc3ccc(Cl)cc3)cc(Cl)cn12 [Compound 3a, 4-{[(6-Chloro-8-[(4-Chlorophenyl)thio]-3-Nitroimidazo[1,2-a]pyridin-2-yl)methyl]sulfonyl}phenol]	5600 ± 900	1400 ± 300			
O=[N+]([O-])c1c(CS(=O)(=O)c2ccccc2)nc2c(Sc3ccc(Cl)cc3)cc(Cl)cn12 [Hit B, reference compound]	600 ± 100	1700 ± 300	3		1.4 ± 0.5
